In BindingDB's records for doi:10.1021/jm970021c (Warner-Lambert, 1997):

assay: Agonist activation of human dopamine receptor stimulating mitogenesis in Dopamine receptor D4-transfected CHO pro-5 cells using [3H]thymidine as radioligand

EC50 [nM]	Structure (SMILES)
31	COc1ccccc1N1CCN(CNC(=O)c2ccccc2)CC1 [N-[4-(2-Methoxy-phenyl)-piperazin-1-ylmethyl]-benzamide]
218	Cc1ccc(C(=O)NCN2CCN(c3ccccc3Cl)CC2)cc1 [N-[4-(2-Chloro-phenyl)-piperazin-1-ylmethyl]-4-methyl-benzamide]
16	Cc1cccc(C(=O)NCN2CCN(c3ccccc3Cl)CC2)c1 [N-[4-(2-Chloro-phenyl)-piperazin-1-ylmethyl]-3-methyl-benzamide]
15	COc1ccccc1N1CCN(CNC(=O)c2cccc(Cl)c2)CC1 [3-Chloro-N-[4-(2-methoxy-phenyl)-piperazin-1-ylmethyl]-benzamide]
13	COc1ccccc1N1CCN(CNC(=O)c2cccc(C)c2)CC1 [N-[4-(2-Methoxy-phenyl)-piperazin-1-ylmethyl]-3-methyl-benzamide]
8.4	O=C(NCN1CCN(c2ccccc2Cl)CC1)c1ccc(Cl)cc1 [4-Chloro-N-[4-(2-chloro-phenyl)-piperazin-1-ylmethyl]-benzamide]
106	O=C(NCN1CCN(c2ccccc2Cl)CC1)c1ccccc1 [N-[4-(2-Chloro-phenyl)-piperazin-1-ylmethyl]-benzamide]
> 3.9	N#Cc1ccccc1N1CCN(CNC(=O)c2ccc(Cl)cc2)CC1 [4-Chloro-N-[4-(2-cyano-phenyl)-piperazin-1-ylmethyl]-benzamide]
5.3	N#Cc1ccccc1N1CCN(CNC(=O)c2cccc(Cl)c2)CC1 [3-Chloro-N-[4-(2-cyano-phenyl)-piperazin-1-ylmethyl]-benzamide]
24	N#Cc1ccccc1N1CCN(CNC(=O)c2ccccc2)CC1 [N-[4-(2-Cyano-phenyl)-piperazin-1-ylmethyl]-benzamide]
1.2	Cc1ccc(C(=O)NCN2CCN(c3ccccc3C#N)CC2)cc1 [N-[4-(2-Cyano-phenyl)-piperazin-1-ylmethyl]-4-methyl-benzamide]
8.4	COc1ccccc1N1CCN(CNC(=O)c2ccc(Cl)cc2)CC1 [4-Chloro-N-[4-(2-methoxy-phenyl)-piperazin-1-ylmethyl]-benzamide]
3.4	COc1ccccc1N1CCN(CNC(=O)c2ccc(C)cc2)CC1 [N-[4-(2-Methoxy-phenyl)-piperazin-1-ylmethyl]-4-methyl-benzamide]
